What was measured:
[1] = system: barnyardgrass (Echinochloa crus-galli); test: Test A preemergence, barnyardgrass; type: in vivo; conditions: Echinochloa crus-galli, pre-emergence, 240 h, 0 to 100 scale (0 no effect, 100 complete control), read-out: Plant response rating, Barnyardgrass; for pest or weed control at 31 g/ha: 31 g ai/ha; for pest or weed control at 125 g/ha: 125 g ai/ha
kochia (Kochia scoparia) [2] = test: Test A preemergence, kochia; type: in vivo; conditions: Bassia scoparia, pre-emergence, 240 h, 0 to 100 scale (0 no effect, 100 complete control), read-out: Plant response rating, Kochia; for pest or weed control at 31 g/ha: 31 g ai/ha; for pest or weed control at 125 g/ha: 125 g ai/ha
[3] = system: ragweed (common ragweed, Ambrosia elatior); test: Test A preemergence, ragweed; type: in vivo; conditions: Ambrosia artemisiifolia, pre-emergence, 240 h, 0 to 100 scale (0 no effect, 100 complete control), read-out: Plant response rating, Ragweed; for pest or weed control at 31 g/ha: 31 g ai/ha; for pest or weed control at 125 g/ha: 125 g ai/ha
[4] = system: ryegrass, Italian (Italian ryegrass, Lolium multiflorum); test: Test A preemergence, ryegrass, Italian; type: in vivo; conditions: Lolium multiflorum, pre-emergence, 240 h, 0 to 100 scale (0 no effect, 100 complete control), read-out: Plant response rating, Ryegrass, Italian; for pest or weed control at 31 g/ha: 31 g ai/ha; for pest or weed control at 125 g/ha: 125 g ai/ha
[5] = system: pigweed (Amaranthus retroflexus); test: Test A preemergence, pigweed; type: in vivo; conditions: Amaranthus retroflexus, pre-emergence, 240 h, 0 to 100 scale (0 no effect, 100 complete control), read-out: Plant response rating, Pigweed; for pest or weed control at 31 g/ha: 31 g ai/ha; for pest or weed control at 125 g/ha: 125 g ai/ha
[6] = system: barnyardgrass (Echinochloa crus-galli); test: Test A postemergence, barnyardgrass; type: in vivo; conditions: Echinochloa crus-galli, post-emergence, 240 h, 0 to 100 scale (0 no effect, 100 complete control), read-out: Plant response rating, Barnyardgrass; for pest or weed control at 31 g/ha: 31 g ai/ha; for pest or weed control at 125 g/ha: 125 g ai/ha
kochia (Kochia scoparia) [7] = test: Test A postemergence, kochia; type: in vivo; conditions: Bassia scoparia, post-emergence, 240 h, 0 to 100 scale (0 no effect, 100 complete control), read-out: Plant response rating, Kochia; for pest or weed control at 31 g/ha: 31 g ai/ha; for pest or weed control at 125 g/ha: 125 g ai/ha
[8] = system: ragweed (common ragweed, Ambrosia elatior); test: Test A postemergence, ragweed; type: in vivo; conditions: Ambrosia artemisiifolia, post-emergence, 240 h, 0 to 100 scale (0 no effect, 100 complete control), read-out: Plant response rating, Ragweed; for pest or weed control at 31 g/ha: 31 g ai/ha; for pest or weed control at 125 g/ha: 125 g ai/ha
[9] = system: ryegrass, Italian (Italian ryegrass, Lolium multiflorum); test: Test A postemergence, ryegrass, Italian; type: in vivo; conditions: Lolium multiflorum, post-emergence, 240 h, 0 to 100 scale (0 no effect, 100 complete control), read-out: Plant response rating, Ryegrass, Italian; for pest or weed control at 31 g/ha: 31 g ai/ha; for pest or weed control at 125 g/ha: 125 g ai/ha
[10] = system: pigweed (Amaranthus retroflexus); test: Test A postemergence, pigweed; type: in vivo; conditions: Amaranthus retroflexus, post-emergence, 240 h, 0 to 100 scale (0 no effect, 100 complete control), read-out: Plant response rating, Pigweed; for pest or weed control at 31 g/ha: 31 g ai/ha; for pest or weed control at 125 g/ha: 125 g ai/ha
[11] = system: wheat (Triticum aestivum); test: Test A postemergence, wheat; type: in vivo; conditions: Triticum aestivum, post-emergence, 240 h, 0 to 100 scale (0 no effect, 100 complete control), read-out: Plant response rating, Wheat; for plant injury at 31 g/ha: 31 g ai/ha; for plant injury at 125 g/ha: 125 g ai/ha
corn (Zea mays) = test: Test A postemergence, corn; type: in vivo; conditions: Zea mays, post-emergence, 240 h, 0 to 100 scale (0 no effect, 100 complete control); for Corn plant response rating (crop injury, 0 = no effect, 100 = complete kill) at 31 g/ha: 31 g ai/ha; for Corn plant response rating (crop injury, 0 = no effect, 100 = complete kill) at 125 g/ha: 125 g ai/ha
[12] = system: blackgrass (Alopecurus myosuroides); test: Test A postemergence, blackgrass; type: in vivo; conditions: Alopecurus myosuroides, post-emergence, 240 h, 0 to 100 scale (0 no effect, 100 complete control), read-out: Plant response rating, Blackgrass; for pest or weed control at 31 g/ha: 31 g ai/ha; for pest or weed control at 125 g/ha: 125 g ai/ha
[13] = system: galium (catchweed bedstraw, Galium aparine); test: Test A postemergence, galium; type: in vivo; conditions: Galium, post-emergence, 240 h, 0 to 100 scale (0 no effect, 100 complete control), read-out: Plant response rating, Galium; for pest or weed control at 31 g/ha: 31 g ai/ha; for pest or weed control at 125 g/ha: 125 g ai/ha
rice (Oryza sativa) = test: Test B flooded paddy test, rice; conditions: Oryza sativa, read-out: Plant response rating, Rice (0 to 100 scale, 0 is no effect, 100 is complete control)
[14] = system: ducksalad (Heteranthera limosa); test: Test B flooded paddy test, ducksalad; conditions: Heteranthera limosa, read-out: Plant response rating, Ducksalad (0 to 100 scale, 0 is no effect, 100 is complete control)
[15] = system: barnyardgrass (Echinochloa crus-galli); test: Test B flooded paddy test, barnyardgrass; conditions: Echinochloa crus-galli, read-out: Plant response rating, Barnyardgrass (0 to 100 scale, 0 is no effect, 100 is complete control)

SMILES | pest or weed control at 31 g/ha [1] [%] | pest or weed control at 125 g/ha [1] [%] | pest or weed control at 31 g/ha (kochia (Kochia scoparia) [2]) [%] | pest or weed control at 125 g/ha (kochia (Kochia scoparia) [2]) [%] | pest or weed control at 31 g/ha [3] [%] | pest or weed control at 125 g/ha [3] [%] | pest or weed control at 31 g/ha [4] [%] | pest or weed control at 125 g/ha [4] [%] | pest or weed control at 31 g/ha [5] [%] | pest or weed control at 125 g/ha [5] [%] | pest or weed control at 31 g/ha [6] [%] | pest or weed control at 125 g/ha [6] [%] | pest or weed control at 31 g/ha (kochia (Kochia scoparia) [7]) [%] | pest or weed control at 125 g/ha (kochia (Kochia scoparia) [7]) [%] | pest or weed control at 31 g/ha [8] [%] | pest or weed control at 125 g/ha [8] [%] | pest or weed control at 31 g/ha [9] [%] | pest or weed control at 125 g/ha [9] [%] | pest or weed control at 31 g/ha [10] [%] | pest or weed control at 125 g/ha [10] [%] | further results
O=C1O[C@H](CCC(F)(F)F)c2c(Oc3ncc(Cl)cn3)cccc21 [Compound 19, (3R)-4-[(5-Chloro-2-pyrimidinyl)oxy]-3-(3,3,3-trifluoropropyl)-1(3H)-isobenzofuranone] | 80 | 100 | 90 | 100 | 0 | 60 | 10 | 90 | 100 | 100 | 50 | 100 | 80 | 100 | 30 | 70 | 80 | 100 | 100 | 100 | plant injury at 31 g/ha [11]: 20%; plant injury at 125 g/ha [11]: 100%; Corn plant response rating (crop injury, 0 = no effect, 100 = complete kill) at 31 g/ha (corn (Zea mays)): 40%; Corn plant response rating (crop injury, 0 = no effect, 100 = complete kill) at 125 g/ha (corn (Zea mays)): 70%; pest or weed control at 31 g/ha [12]: 100%; pest or weed control at 125 g/ha [12]: 100%; pest or weed control at 31 g/ha [13]: 90%; pest or weed control at 125 g/ha [13]: 100%; plant injury at 250 g/ha (rice (Oryza sativa)): 50%; pest or weed control at 250 g/ha [14]: 100%; pest or weed control at 250 g/ha [15]: 60%
FC(F)(F)CC[C@H]1OCc2cccc(Oc3ncc(Cl)cn3)c21 [Compound 20, 5-Chloro-2-[[(3R)-1,3-dihydro-3-(3,3,3-trifluoropropyl)-4-isobenzofuranyl]oxy]-pyrimidine] | 70 | 100 | 100 | 100 | 30 | 100 | 10 | 60 | 100 | 100 | 40 | 100 | 90 | 100 | 30 | 70 | 30 | 80 | 100 | 100 | plant injury at 31 g/ha [11]: 20%; plant injury at 125 g/ha [11]: 90%; Corn plant response rating (crop injury, 0 = no effect, 100 = complete kill) at 31 g/ha (corn (Zea mays)): 30%; Corn plant response rating (crop injury, 0 = no effect, 100 = complete kill) at 125 g/ha (corn (Zea mays)): 50%; pest or weed control at 31 g/ha [12]: 80%; pest or weed control at 125 g/ha [12]: 100%; pest or weed control at 31 g/ha [13]: 90%; pest or weed control at 125 g/ha [13]: 100%; plant injury at 250 g/ha (rice (Oryza sativa)): 30%; pest or weed control at 250 g/ha [14]: 100%; pest or weed control at 250 g/ha [15]: 90%
FC(F)(F)CC[C@@H]1OCc2cccc(Oc3ncc(Cl)cn3)c21 [Compound 21, 5-Chloro-2-[[(3S)-1,3-dihydro-3-(3,3,3-trifluoropropyl)-4-isobenzofuranyl]oxy]-pyrimidine] | 0 | 20 | 0 | 0 | 0 | 0 | 0 | 0 | 0 | 0 | 0 | 20 | 20 | 60 | 0 | 10 | 0 | 0 | 20 | 50 | plant injury at 31 g/ha [11]: 0%; plant injury at 125 g/ha [11]: 0%; Corn plant response rating (crop injury, 0 = no effect, 100 = complete kill) at 31 g/ha (corn (Zea mays)): 0%; Corn plant response rating (crop injury, 0 = no effect, 100 = complete kill) at 125 g/ha (corn (Zea mays)): 20%; pest or weed control at 31 g/ha [12]: 10%; pest or weed control at 125 g/ha [12]: 30%; pest or weed control at 31 g/ha [13]: 10%; pest or weed control at 125 g/ha [13]: 30%; plant injury at 250 g/ha (rice (Oryza sativa)): 0%; pest or weed control at 250 g/ha [14]: 70%; pest or weed control at 250 g/ha [15]: 0%
O=C1c2cccc(Oc3ncc(Cl)cn3)c2C1CCCC(F)(F)F (stereo not shown) [Compound 22, 2-[(5-Chloro-2-pyrimidinyl)oxy]-8-(4,4,4-trifluorobutyl)bicyclo[4.2.0]octa-1,3,5-trien-7-one] | 0 | 60 | 20 | 80 | 0 | 0 | 0 | 20 | 0 | 30 | 20 | 40 | 40 | 80 | 0 | 20 | 30 | 20 | 30 | 80 | plant injury at 31 g/ha [11]: 0%; plant injury at 125 g/ha [11]: 0%; Corn plant response rating (crop injury, 0 = no effect, 100 = complete kill) at 31 g/ha (corn (Zea mays)): 20%; Corn plant response rating (crop injury, 0 = no effect, 100 = complete kill) at 125 g/ha (corn (Zea mays)): 30%; pest or weed control at 31 g/ha [12]: 0%; pest or weed control at 125 g/ha [12]: 50%; pest or weed control at 31 g/ha [13]: 50%; pest or weed control at 125 g/ha [13]: 80%; plant injury at 250 g/ha (rice (Oryza sativa)): 0%; pest or weed control at 250 g/ha [14]: 80%; pest or weed control at 250 g/ha [15]: 35%
